Measurements reported in patent publication US20250313563A1, “GLYCOGEN SYNTHASE KINASE 3 INHIBITORS AND USES THEREOF” (The Broad Institute, Inc., priority 2022, published 2025).
Read-outs that look alike come from different tables or passages of the source.

What was measured:
[1] = biological target: GSK3b (GST-full length GSK3b) (Homo sapiens (Human), UniProt P49841); experiment: GSK3b TR-FRET kinase assay; assay type: biochemical
Method: (§1) TR-FRET Assay: The assay was performed in a white, 384 well, low volume, flat bottom plate (Grenier). After a 30 minute preincubation in assay buffer with the indicated concentration of compound, the kinase activity was initiated by the addition of the substrates. 1 nM GSK3α (GST-full length GSK3α [SignalChem G08-10G]) or 1 nM GSK3b (GST-full length GSK3b: [SignalChem G08-9G]) were then incubated at ambient temperature for 100 minutes in 10 μL of 50 mM Tris, pH 7.5, 20 mM MgCl2, 0.05 mM DTT, 100 μg/mL BSA and 1% DMSO, with 200 nM biotinylated peptide substrate (biotinylated and S645 phosphorylated glycogen synthase 631-650) and either 4 μM ATP (GSK3α, Table 16) or 2 μM ATP (GSK3b, Table 16) or 1 mM ATP (Table 17). The kinase activity was quenched with 2 μL of 250 mM EDTA. A 10 μL volume of 40 nM Strepavidin-d2, 2 nM Tb^2+-pSer641 antibody in TR-FRET Detection Buffer (Invitrogen) was then added. After 60 min at room temperature the plate was read on Envision plate reader using Ex: 340 nm, Em: 615 nm and […]. The normalized 665/615 Signal ratio versus log compound concentration was analyzed by XLFIT to yield IC50 values.

[2] = biological target: GSK3α (GST-full length GSK3α) (Homo sapiens (Human), UniProt P49840); experiment: GSK3α TR-FRET kinase assay; assay type: biochemical
Sequence of GSK3α (GST-full length GSK3α) (P49840 whole entry): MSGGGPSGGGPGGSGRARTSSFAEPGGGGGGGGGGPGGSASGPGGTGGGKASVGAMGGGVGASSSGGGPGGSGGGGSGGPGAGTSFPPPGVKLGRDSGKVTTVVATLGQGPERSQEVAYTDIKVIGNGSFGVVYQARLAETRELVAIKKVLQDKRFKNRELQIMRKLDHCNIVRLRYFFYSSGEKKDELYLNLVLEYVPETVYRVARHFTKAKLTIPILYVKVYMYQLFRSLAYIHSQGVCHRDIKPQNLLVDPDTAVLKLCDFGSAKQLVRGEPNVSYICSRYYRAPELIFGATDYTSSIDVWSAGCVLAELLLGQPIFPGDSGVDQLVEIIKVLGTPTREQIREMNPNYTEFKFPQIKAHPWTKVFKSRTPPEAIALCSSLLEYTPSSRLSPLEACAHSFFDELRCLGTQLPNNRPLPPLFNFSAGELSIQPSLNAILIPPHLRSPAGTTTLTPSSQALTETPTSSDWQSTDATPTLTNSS
Method: as §1

[3] = 1 nM GSK3b, 2 μM ATP, 30 minute preincubation, Table 16, read-out: GSK3-B TR-FRET BIOCHEMICAL (TR-FRET), IC50
[4] = 1 nM GSK3α, 4 μM ATP, 30 minute preincubation, Table 16, read-out: GSK3-A TR-FRET BIOCHEMICAL (TR-FRET), IC50
[5] = 1 nM GSK3b, 2 μM ATP, 30 minute preincubation, Table 16, read-out: GSK3-B TR-FRET BIOCHEMICAL (TR-FRET)
[6] = 1 nM GSK3α, 4 μM ATP, 30 minute preincubation, Table 16, read-out: GSK3-A TR-FRET BIOCHEMICAL (TR-FRET)
[7] = 1 nM GSK3b, 2 μM ATP, 30 minute preincubation, geometric mean, read-out: GSK3-B TR-FRET BIOCHEMICAL (TR-FRET), GMean, IC50
[8] = 1 nM GSK3α, 4 μM ATP, 30 minute preincubation, geometric mean, read-out: GSK3-A TR-FRET BIOCHEMICAL (TR-FRET), GMean, IC50
[9] = GSK3-B (TR-FRET 1 mM ATP), GMean, IC50, 1 mM ATP, geometric mean
[10] = GSK3-A (TR-FRET 1 mM ATP), GMean, IC50, 1 mM ATP, geometric mean
[11] = 1 nM GSK3b, 2 μM ATP, 30 minute preincubation, read-out: GSK3-B TR-FRET BIOCHEMICAL (TR-FRET), IC50
[12] = 1 nM GSK3α, 4 μM ATP, 30 minute preincubation, read-out: GSK3-A TR-FRET BIOCHEMICAL (TR-FRET), IC50
[13] = read-out: GSK3-B (TR-FRET 1 mM ATP), GMean, IC50, 1 mM ATP, geometric mean
[14] = read-out: GSK3-A (TR-FRET 1 mM ATP), GMean, IC50, 1 mM ATP, geometric mean

Sequence of GSK3b (GST-full length GSK3b) (P49841 whole entry): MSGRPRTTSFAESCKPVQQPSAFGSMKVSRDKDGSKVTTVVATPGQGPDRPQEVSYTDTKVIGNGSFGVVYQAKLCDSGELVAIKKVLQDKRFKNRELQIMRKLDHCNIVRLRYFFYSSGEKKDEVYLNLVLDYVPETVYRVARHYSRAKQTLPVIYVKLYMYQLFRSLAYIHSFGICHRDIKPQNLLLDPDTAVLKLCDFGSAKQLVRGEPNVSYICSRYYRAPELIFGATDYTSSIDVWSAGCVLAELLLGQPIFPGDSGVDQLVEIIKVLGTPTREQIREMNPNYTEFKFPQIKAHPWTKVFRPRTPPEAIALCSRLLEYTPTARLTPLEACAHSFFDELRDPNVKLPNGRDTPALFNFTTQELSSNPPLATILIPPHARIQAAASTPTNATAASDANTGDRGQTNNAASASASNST

## CCC1(c2cccc(N(C)c3nc(C)cc(C)n3)c2)C2=C(CC(C)(C)CC2=O)Nc2n[nH]cc21 (stereo not drawn) [Compound 926304]
[1]; [3]
  IC50: 1 to 5 µM
[2]; [4]
  IC50: 0.1 to 1 µM

## COc1cncc(S(=O)(=O)N2CCC3(CC2)C2=C(CC(C)(C)CC2=O)Nc2n[nH]cc23)c1 [Compound 947465]
[1]; [5]
  IC50: ≤ 0.1 µM
[2]; [6]
  IC50: ≤ 0.1 µM

## CC1(C)CC(=O)C2=C(C1)Nc1n[nH]cc1C21CCCSCC1 (stereo not drawn) [Compound 913126]
[1]; [5]
  IC50: 0.1 to 1 µM
[2]; [6]
  IC50: ≤ 0.1 µM

## CCC1(c2cccc(-c3cnn(C)c3)c2)C2=C(CC(C)(C)CC2=O)Nc2n[nH]c(C(F)(F)F)c21 (stereo not drawn) [Compound 801445]
[1]; [7]
  IC50: ≤ 0.1 µM
[2]; [8]
  IC50: ≤ 0.1 µM

## CC[C@]1(c2ccccc2)C2=C(Nc3n[nH]cc31)[C@H](C)C[C@H](C)C2=O [Compound 909218]
[1]; [3]
  IC50: > 5 µM
[2]; [4]
  IC50: > 5 µM

## CC[C@@]1(c2ccccc2)C2=C(CC(C)(C)CC2=O)Nc2n[nH]c(Br)c21 [Compound 792340]
[1]; [7]
  IC50: ≤ 0.1 µM
[1]; [9]
  IC50: 0.1 to 1 µM
[2]; [8]
  IC50: ≤ 0.1 µM
[2]; [10]
  IC50: 0.1 to 1 µM

## O=C1CC2(CCCC2)CC2=C1C1(CCOCC1)c1c[nH]nc1N2 [Compound 893308]
[1]; [5]
  IC50: 0.1 to 1 µM
[2]; [6]
  IC50: ≤ 0.1 µM

## CC1(C)CC(=O)C2=C(C1)Nc1n[nH]cc1C21CCN(S(=O)(=O)c2cccc(F)c2)CC1 [Compound 901466]
[1]; [5]
  IC50: ≤ 0.1 µM
[2]; [6]
  IC50: ≤ 0.1 µM

## CCC1(c2cccc(Cl)c2)C2=C(CC(C)(C)CC2=O)Nc2n[nH]c(C(F)(F)F)c21 (stereo not drawn) [Compound 801309]
[1]; [7]
  IC50: > 1.67 µM
[2]; [8]
  IC50: 1 to 5 µM

## CCC1(c2cccc(-c3cnn4c3CCC4)c2)C2=C(CC(C)(C)CC2=O)Nc2n[nH]cc21 (stereo not drawn) [Compound 947494]
[1]; [5]
  IC50: 0.1 to 1 µM
[2]; [6]
  IC50: ≤ 0.1 µM

## CC[C@]1(c2cccc(C(F)(F)F)c2)C2=C(C[C@H](C)NC2=O)Nc2n[nH]cc21 [Compound 912099]
[1]; [11]
  IC50: > 5 µM
[2]; [12]
  IC50: > 5 µM

## CCC1(c2cccc(C(F)(F)F)c2)C2=C(CC(C)(C)C2=O)Nc2n[nH]cc21 (stereo not drawn) [Compound 950273]
[1]; [3]
  IC50: > 5 µM
[2]; [4]
  IC50: > 5 µM

## CC1(C)CC2=C(C(=O)N1)C1(CCN(S(=O)(=O)C3CCCC3)CC1)c1c[nH]nc1N2 [Compound 943960]
[1]; [11]
  IC50: ≤ 0.1 µM
[1]; [9]
  IC50: 0.1 to 1 µM
[2]; [12]
  IC50: ≤ 0.1 µM
[2]; [10]
  IC50: 0.1 to 1 µM

## CC1(C)CC(=O)C2=C(C1)Nc1n[nH]cc1C21CCN(S(=O)(=O)c2ccc(C(F)(F)F)cn2)CC1 [Compound 947902]
[1]; [5]
  IC50: ≤ 0.1 µM
[2]; [6]
  IC50: ≤ 0.1 µM

## CCC1(c2cccc(N(C)c3cccc(OC)n3)c2)C2=C(CC(C)(C)CC2=O)Nc2n[nH]cc21 (stereo not drawn) [Compound 913121]
[1]; [3]
  IC50: 0.1 to 1 µM
[2]; [4]
  IC50: ≤ 0.1 µM

## CCC1(c2cccc(-c3c(C)nn(C)c3C)c2)C2=C(CC(C)(C)NC2=O)Nc2n[nH]c(C)c21 (stereo not drawn) [Compound 945598]
[1]; [11]
  IC50: ≤ 0.1 µM
[2]; [12]
  IC50: ≤ 0.1 µM

## CCC1(c2cccc(C(F)(F)F)c2)C2=C(CCN(c3cccc(C)c3)C2=O)Nc2n[nH]cc21 (stereo not drawn) [Compound 949040]
[1]; [7]
  IC50: 0.1 to 1 µM
[2]; [8]
  IC50: ≤ 0.1 µM

## CC[C@@]1(c2ccccc2)C2=C(C[C@@H](C)CC2=O)Nc2n[nH]cc21 [Compound 789010]
[1]; [7]
  IC50: 0.1 to 1 µM
[2]; [8]
  IC50: 0.1 to 1 µM

## CO[C@H]1C[C@@]2(C1)C1=C(CC(C)(C)CC1=O)Nc1n[nH]cc12 [Compound 901472]
[1]; [3]
  IC50: > 5 µM
[2]; [4]
  IC50: > 5 µM

## CC[C@@]1(c2ccccc2)C2=C(C[C@H](C)CC2=O)Nc2n[nH]cc21 [Compound 789009]
[1]; [7]
  IC50: > 5 µM
[2]; [8]
  IC50: > 5 µM

## CC(C)(C)Cc1[nH]nc2c1C1(COc3ccccc31)C1=C(CC(C)(C)CC1=O)N2 (stereo not drawn) [Compound 117093]
[1]; [13]
  IC50: 0.1 to 1 µM
[2]; [14]
  IC50: 1 to 5 µM

## CCC1(c2cccc(-c3cn(C)nc3C)c2)C2=C(CC(C)(C)NC2=O)Nc2n[nH]c(C(F)F)c21 (stereo not drawn) [Compound 949170]
[1]; [7]
  IC50: ≤ 0.1 µM
[2]; [8]
  IC50: ≤ 0.1 µM

## CC[C@]1(c2cccc(C3CCCC3)c2)C2=C(CC(C)(C)CC2=O)Nc2n[nH]cc21 [Compound 949399]
[1]; [3]
  IC50: > 5 µM
[2]; [4]
  IC50: 1 to 5 µM

## COc1ccccc1S(=O)(=O)N1CCCC2(CC1)C1=C(CC(C)(C)CC1=O)Nc1n[nH]cc12 (stereo not drawn) [Compound 917142]
[1]; [5]
  IC50: 0.1 to 1 µM
[2]; [6]
  IC50: ≤ 0.1 µM

## CC1(C)CC(=O)C2=C(C1)Nc1n[nH]cc1[C@]21COC2(CCC2)C1 [Compound 917128]
[1]; [11]
  IC50: 0.1 to 1 µM
[2]; [12]
  IC50: 0.1 to 1 µM

## CCC1(c2cccc(C(F)(F)F)c2)C2=C(Nc3n[nH]cc31)C(F)C(C)(C)CC2=O (single isomer, unassigned) [Compound 837803, 4-ethyl-8-fluoro-7,7-dimethyl-4-(3-(trifluoromethyl)phenyl)-2,4,6,7,8,9-hexahydro-5H-pyrazolo[3,4-b]quinolin-5-one]
[1]; [7]
  IC50: > 5 µM
[1]; [9]
  IC50: > 5 µM
[2]; [8]
  IC50: 1 to 5 µM
[2]; [10]
  IC50: > 5 µM

## CCC1(c2ccc(F)cc2)C2=C(CC(C)(C)CC2=O)Nc2n[nH]cc21 (stereo not drawn) [Compound 772965]
[1]; [7]
  IC50: > 5 µM
[2]; [8]
  IC50: 1 to 5 µM

## CCC1(c2cccc(-c3ccnc(C(F)(F)F)c3)c2)C2=C(CC(C)(C)CC2=O)Nc2n[nH]cc21 (stereo not drawn) [Compound 913348]
[1]; [3]
  IC50: 0.1 to 1 µM
[2]; [4]
  IC50: ≤ 0.1 µM

## CC[C@]1(c2ccccc2)C2=C(C[C@@]3(CCN(C)C3=O)CC2=O)Nc2n[nH]cc21 [Compound 949753]
[1]; [5]
  IC50: > 5 µM
[2]; [6]
  IC50: 1 to 5 µM

## CC1(C)CC(=O)C2=C(C1)Nc1n[nH]cc1C21CCN(S(=O)(=O)c2cnnn2-c2ccccc2)CC1 [Compound 947466]
[1]; [5]
  IC50: 0.1 to 1 µM
[2]; [6]
  IC50: ≤ 0.1 µM

## CC[C@]1(c2cccc(-c3cc(C(C)(C)C)nn3C)c2)C2=C(CC(C)(C)NC2=O)Nc2n[nH]cc21 [Compound 951843]
[1]; [3]
  IC50: > 5 µM
[2]; [4]
  IC50: 0.1 to 1 µM

## CCn1cc(N2CCC3=C(C2=O)[C@](CC)(c2cccc(C(F)(F)F)c2)c2c[nH]nc2N3)cn1 [Compound 949867]
[1]; [3]
  IC50: 0.1 to 1 µM
[2]; [4]
  IC50: ≤ 0.1 µM

## CC[C@]1(c2cccc(C(F)(F)F)c2)C2=C(CCN(c3ccn(C)n3)C2=O)Nc2n[nH]cc21 [Compound 949836]
[1]; [3]
  IC50: > 5 µM
[2]; [4]
  IC50: 1 to 5 µM

## CC[C@]1(c2cccc(-c3ccnc4nc(C)ccc34)c2)C2=C(CC(C)(C)NC2=O)Nc2n[nH]cc21 [Compound 948143]
[1]; [7]
  IC50: 0.1 to 1 µM
[2]; [8]
  IC50: ≤ 0.1 µM

## CCC1(c2cccc(-c3ccnc(C(F)(F)F)c3)c2)C2=C(CC(C)(C)CC2=O)Nc2n[nH]c(C)c21 (stereo not drawn) [Compound 883989]
[1]; [3]
  IC50: 0.1 to 1 µM
[2]; [4]
  IC50: ≤ 0.1 µM

## CC[C@]1(c2cccc(C(F)(F)F)c2)C2=C(CCN(c3ccccc3C)C2=O)Nc2n[nH]cc21 [Compound 949129]
[1]; [7]
  IC50: > 5 µM
[2]; [8]
  IC50: > 5 µM

## CC[C@]1(c2cccc(-c3ccncc3C(F)(F)F)c2)C2=C(CC(C)(C)NC2=O)Nc2n[nH]cc21 [Compound 952025]
[1]; [3]
  IC50: ≤ 0.1 µM
[1]; [13]
  IC50: 1 to 5 µM
[2]; [4]
  IC50: ≤ 0.1 µM
[2]; [14]
  IC50: ≤ 0.1 µM

## Cn1ccc(CN2CC3(C2)C2=C(CC(C)(C)CC2=O)Nc2n[nH]cc23)n1 [Compound 932652]
[1]; [3]
  IC50: > 5 µM
[2]; [4]
  IC50: > 5 µM
